Measured values: PubChem BioAssay (NCI)
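Where inhibition never reached the appropriate level, the endpoint shown equals the highest concentration tested. Otherwise, values were interpolated linearly from a five-concentration, 48-hour dose response in 96-well plates. TGI denotes the concentration required for complete inhibition of growth.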

Tests used:
Assay in all cases: inhibition of tumour cell growth, NCI panel, 48 h
[1] = system: SK-OV-3 ovarian
[2] = system: NCI-H23 lung
[3] = system: HCT-15 colon
[4] = system: HOP-92 NSCLC
[5] = system: CAKI-1 renal
[6] = system: TK-10 renal
[7] = system: SK-MEL-5 melanoma
[8] = system: SK-MEL-2 melanoma
[9] = system: LOX IMVI melanoma
[10] = system: SNB-75 CNS
[11] = system: K-562 leukemia
[12] = system: RPMI-8226 leukemia

SMILES | TGI [1] | TGI [2] | TGI [3] | TGI [4] | TGI [5] | TGI [6] | TGI [7] | TGI [8] | TGI [9] | TGI [10] | TGI [11] | TGI [12]
CCC(=O)OCc1ccc2oc(=O)c(C(=O)Oc3cncc(Cl)c3)cc2c1 | > 100 µM | > 100 µM | > 100 µM | > 100 µM | > 100 µM | > 100 µM | > 100 µM | > 100 µM | > 100 µM | > 100 µM | 77.9 µM | > 100 µM
COC1(OC)N=C(N)C2(C#N)C(C)CC(=O)N(N(C)C)C12C#N (stereo unspecified) | > 100 µM | > 100 µM | > 100 µM | > 100 µM | > 100 µM | > 100 µM | > 100 µM | > 100 µM | > 100 µM | > 100 µM | > 100 µM | > 100 µM
COc1ccc(-c2cc(-c3ccc(Nc4ccnc5cc(C(F)(F)F)ccc45)cc3)[nH]c(=O)c2C#N)c2ccccc12 | > 100 µM | > 100 µM | > 100 µM | > 100 µM | > 100 µM | > 90.7 µM | > 100 µM | > 100 µM | > 49.7 µM | 29.9 µM | > 100 µM | > 100 µM
